Reference: patent publication US11202773B2, “Locally bioavailable drugs” (UNIVERSITY OF HOUSTON SYSTEM, priority 2015, dated 2021)
Like-named read-outs stand apart in the source and are kept apart here.

What was measured:
[1] = target: T1, mouse COX-2 (Mus musculus, UniProt Q05769); assay: COX-2 activity (PGD2/PGE2 production) in LPS-induced Raw264.7 cells; assay type: cell-based; conditions: 0.1 μg/mL LPS, 14 hours co-incubation
T1 construct: Raw264.7 is a mouse macrophage cell line which expresses a high level of COX-2 protein upon lipopolysaccharide (LPS) induction; endogenous in cells; host or cells: Raw264.7 (LPS-induced)
T1 sequence (Q05769 18-604): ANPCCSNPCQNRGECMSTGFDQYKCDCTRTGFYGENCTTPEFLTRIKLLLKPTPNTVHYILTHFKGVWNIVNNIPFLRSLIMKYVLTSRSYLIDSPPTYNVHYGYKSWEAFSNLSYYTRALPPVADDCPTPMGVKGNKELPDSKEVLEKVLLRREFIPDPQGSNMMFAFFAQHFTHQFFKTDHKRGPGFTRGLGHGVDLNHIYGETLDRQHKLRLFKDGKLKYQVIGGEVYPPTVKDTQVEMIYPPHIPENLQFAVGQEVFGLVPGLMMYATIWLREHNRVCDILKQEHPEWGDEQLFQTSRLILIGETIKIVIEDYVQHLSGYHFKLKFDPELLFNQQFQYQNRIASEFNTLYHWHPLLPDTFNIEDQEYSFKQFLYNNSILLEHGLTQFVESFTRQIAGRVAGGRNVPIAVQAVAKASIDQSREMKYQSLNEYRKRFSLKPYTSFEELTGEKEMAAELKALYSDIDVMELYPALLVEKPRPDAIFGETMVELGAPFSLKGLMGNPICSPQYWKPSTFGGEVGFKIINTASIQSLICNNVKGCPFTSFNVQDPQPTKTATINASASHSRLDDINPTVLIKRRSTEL
Description: (§1) First, the inhibitory effects of the new synthesized compounds on COX-2 were assayed in two cell lines: Raw264.7 cells and HCA-7 cells. Raw264.7 is a mouse macrophage cell line which expresses a high level of COX-2 protein upon lipopolysaccharide (LPS) induction. […] The concentration of prostaglandins (both PGD2 and PGE2) accumulated in the cell culture medium can be employed as an indicator of COX-2 activity. HCA-7 is a human colon cancer cell line in which COX-2 protein is constitutively expressed. Briefly, the cells were pre-incubated with different concentrations of the new compounds for 30 min, and then 10 μM A23187 (a calcium ionophore) was added to release membrane-bound arachidonic acid (the natural substrate of COX-2) to the cytosolic domain. The system was incubated for another 30 minutes and PGE2 concentrations in the culture medium were determined. In both cell lines, higher PGD2/PGE2 concentrations in the media meant more COX-2 activity.

[2] = target: T2, human COX-2 (Homo sapiens, UniProt P35354); assay: COX-2 activity (PGE2 production) in HCA-7 cells after A23187; assay type: cell-based; set-up: HCA-7 is a human colon cancer cell line in which COX-2 protein is constitutively expressed; endogenous in cells; host or cells: HCA-7; conditions: 30 min pre-incubation, 10 μM A23187, another 30 minutes
T2 sequence (P35354 18-604): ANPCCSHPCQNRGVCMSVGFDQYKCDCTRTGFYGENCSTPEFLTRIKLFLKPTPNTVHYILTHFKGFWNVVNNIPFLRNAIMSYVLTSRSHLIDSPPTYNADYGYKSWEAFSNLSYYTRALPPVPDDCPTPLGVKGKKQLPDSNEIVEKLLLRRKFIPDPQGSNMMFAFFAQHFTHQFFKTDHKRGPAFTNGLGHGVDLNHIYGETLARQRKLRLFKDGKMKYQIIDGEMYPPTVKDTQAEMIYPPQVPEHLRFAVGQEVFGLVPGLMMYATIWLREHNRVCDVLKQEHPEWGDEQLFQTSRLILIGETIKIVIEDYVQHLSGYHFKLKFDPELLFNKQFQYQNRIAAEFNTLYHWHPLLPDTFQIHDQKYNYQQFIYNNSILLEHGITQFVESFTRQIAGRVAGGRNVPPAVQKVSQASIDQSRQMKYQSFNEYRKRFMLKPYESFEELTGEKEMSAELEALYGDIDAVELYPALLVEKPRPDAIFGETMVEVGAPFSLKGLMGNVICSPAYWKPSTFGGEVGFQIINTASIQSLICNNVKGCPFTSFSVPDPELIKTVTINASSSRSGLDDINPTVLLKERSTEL
Description: as §1

[3] = target: T2, human COX-2; assay: In vitro enzyme assay, recombinant human COX-2 (PGE2 production); assay type: biochemical; conditions: read-out: IC50 against recombinant human COX-2
Text: FIG. 3A is a bar graph illustration of PGE2 production by recombinant human COX-2 enzyme in the presence of the new compounds. Less PGE2 production means inhibition of COX-2 enzyme.
FIG. 3B is a bar graph illustration of PGE2 production by recombinant human COX-2 enzyme in the presence of the metabolites of the new compounds. Less PGE2 production means inhibition of COX-2 enzyme.

[4] = target: recombinant human COX-1 (Homo sapiens, UniProt P23219); assay: In vitro enzyme assay, recombinant human COX-1; assay type: biochemical; conditions: read-out: IC50 against recombinant human COX-1
[5] = tested on: human intestine microsomes; assay: Glucuronidation by human intestine microsomes; assay type: in vitro ADME
Description: (§2) FIG. 5D is a bar graph illustrating in vitro metabolism of phenolics. Glucuronidation rates of 6a1-6a4 by human liver and intestinal microsomes. Additional metabolic rates of various locally bioavailable COX-2 inhibitors are in Table 4. […]. The incubation systems were: for glucuronidation, 0.88 mM magnesium chloride (MgCl2), 4.4 mM saccharolactone, 0.022 mg/mL alamethicin, 3.5 mM uridine 5′-diphospho-glucuronic acid (UDPGA), 10 μM substrates and different concentrations of microsomes in 50 mM potassium phosphate buffer (pH 7.4); for sulfation, 10 mM dithiothreitol (DTT), 5 mM MgCl2, 100 μM 3′-phosphoadenosine-5′-phosphosulfate (PAPS),10 μM substrate and different concentrations of S9 fractions in 50 mM potassium phosphate buffer (pH 7.4).
(§3) In vitro tools were employed to help predict the in vivo metabolism rates of the COX-2 inhibitors that are phenolics. The microsomes and S9 fractions prepared from colon or liver were used to determine the in vivo glucuronidation and sulfation rates of the phenolic compounds, respectively. By employing microsomes and S9 fractions prepared from both rats and humans, it could be determined if the results obtained in the rat model could be reasonably extrapolated to humans. In these experiments, raloxifene and genistein, two phenolic compounds which undergo extensive first-pass metabolism, were selected as controls.

[6] = tested on: rat liver microsomes; assay: Glucuronidation by rat liver microsomes; assay type: in vitro ADME
Description: as §2, with “FIG. 5A” for “FIG. 5D”, “of phenolics via glucuronidation pathway.” for “of phenolics.”, “of all the new locally bioavailable COX-2 inhibitors” for “of 6a1-6a4”, “by rat” for “by human”, “liver” for “liver and intestinal”, “Table 3.” for “Table 4.”
as §3

[7] = tested on: human liver microsomes; assay: Glucuronidation by human liver microsomes; assay type: in vitro ADME
Description: as §2, §3

[8] = tested on: rat colon microsomes; assay: Glucuronidation by rat colon microsomes; assay type: in vitro ADME
Description: (§4) FIG. 5B is a bar graph illustrating in vitro glucuronidation of phenolics in liver and colon microsomes of rats. Glucuronidation rates of 6a1-6a4 by rat liver and colon microsomes were measured. Additional metabolic rates of various locally bioavailable COX-2 inhibitors are in Table 3. […]. The incubation systems were: for glucuronidation, 0.88 mM magnesium chloride (MgCl2), 4.4 mM saccharolactone, 0.022 mg/mL alamethicin, 3.5 mM uridine 5′-diphospho-glucuronic acid (UDPGA), 10 μM substrates and different concentrations of microsomes in 50 mM potassium phosphate buffer (pH 7.4); for sulfation, 10 mM dithiothreitol (DTT), 5 mM MgCl2, 100 μM 3′-phosphoadenosine-5′-phosphosulfate (PAPS), 10 μM substrate and different concentrations of S9 fractions in 50 mM potassium phosphate buffer (pH 7.4).
as §3

[9] = tested on: human Colon S9; assay: Glucuronidation by human colon S9; assay type: in vitro ADME; conditions: substrate 10 μM
Description: as §2
as §3, with “The microsomes and S9 fractions prepared from colon or liver were used to determine the in vivo glucuronidation and sulfation rates of the phenolic compounds, respectively.” left out

[10] = tested on: human Colon S9; assay: Sulfation by human colon S9; assay type: in vitro ADME; conditions: substrate 10 μM
Description: as §2, §3

[11] = tested on: human intestine S9; assay: Sulfation by human intestine S9; assay type: in vitro ADME; conditions: substrate 10 μM
Description: as §2, §3

[12] = tested on: rat liver S9; assay: Sulfation by rat liver S9 fractions; assay type: in vitro ADME; conditions: substrate 10 μM
Description: as §4, with “FIG. 5C” for “FIG. 5B”, “vitro metabolism” for “vitro glucuronidation”, “phenolics via sulfonation pathway. Sulfation” for “phenolics in liver and colon microsomes of rats. Glucuronidation”, “colon S9 fractions.” for “colon microsomes were measured.”, “μM 3′-phosphoadeno sine-5′-phosphosulfate (PAPS),10” for “μM 3′-phosphoadenosine-5′-phosphosulfate (PAPS), 10”
as §3

[13] = tested on: rat colon S9; assay: Sulfation by rat colon S9 fractions; assay type: in vitro ADME; conditions: substrate 10 μM
Description: as §4, with “FIG. 5C” for “FIG. 5B”, “vitro metabolism” for “vitro glucuronidation”, “phenolics via sulfonation pathway. Sulfation” for “phenolics in liver and colon microsomes of rats. Glucuronidation”, “colon S9 fractions.” for “colon microsomes were measured.”, “μM 3′-phosphoadeno sine-5′-phosphosulfate (PAPS),10” for “μM 3′-phosphoadenosine-5′-phosphosulfate (PAPS), 10”
as §3

[14] = tested on: human liver S9; assay: Sulfation by human liver S9; assay type: in vitro ADME; conditions: substrate 10 μM
Description: as §2, §3

recombinant human COX-1, sequence (P23219 24-599): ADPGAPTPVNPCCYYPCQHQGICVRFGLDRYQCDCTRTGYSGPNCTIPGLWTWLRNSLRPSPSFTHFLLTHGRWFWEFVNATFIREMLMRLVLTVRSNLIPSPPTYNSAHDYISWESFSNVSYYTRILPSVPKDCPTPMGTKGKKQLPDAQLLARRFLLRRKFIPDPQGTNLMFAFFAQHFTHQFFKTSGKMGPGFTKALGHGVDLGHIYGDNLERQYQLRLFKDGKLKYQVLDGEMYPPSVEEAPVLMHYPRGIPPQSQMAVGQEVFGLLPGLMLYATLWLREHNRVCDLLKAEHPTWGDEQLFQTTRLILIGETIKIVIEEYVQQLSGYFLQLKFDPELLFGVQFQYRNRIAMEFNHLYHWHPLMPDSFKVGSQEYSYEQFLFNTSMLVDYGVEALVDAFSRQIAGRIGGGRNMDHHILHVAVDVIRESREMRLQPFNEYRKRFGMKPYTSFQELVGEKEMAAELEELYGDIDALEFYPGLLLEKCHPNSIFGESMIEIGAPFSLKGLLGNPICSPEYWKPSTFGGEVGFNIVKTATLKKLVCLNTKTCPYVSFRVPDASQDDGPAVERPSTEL

| IC50 [1] | IC50 [3] | IC50 [4] | Glucuronidation rates by liver microsomes (Mean) [6] | SMILES | also measured |
| --- | --- | --- | --- | --- | --- |
| 0.071 ± 0.021 µM |  |  |  | CCOC(=O)c1cc(-c2ccc(C)cc2)n(-c2ccc(S(N)(=O)=O)cc2)n1 [Compound 3a] | IC50 [2]: 0.149 ± 0.026 µM |
| 0.303 ± 0.055 µM | 2590 nM | 16000 nM | 4763 pmol/mg/min | Cc1ccc(-c2cc(COc3ccc4c(=O)c(O)c(-c5ccccc5)oc4c3)nn2-c2ccc(S(N)(=O)=O)cc2)cc1 [Compound 6a4] | Glucuronidation rates by intestine microsomes (Mean) [5]: 2134 pmol/mg/min; Glucuronidation by rat liver microsomes (FIG. 5A) [6]: rapidly glucuronidated; IC50 [2]: 0.162 ± 0.065 µM; Glucuronidation rates by liver microsomes (Mean) [7]: 291 pmol/mg/min; Glucuronidation rates by colon microsomes (Mean) [8]: 571 pmol/mg/min |
|  | 54500 nM | 197000 nM | 7453 pmol/mg/min | NS(=O)(=O)c1ccc(-n2nc(COc3ccccc3O)cc2-c2ccccc2)cc1 [Compound 6b1] |  |
| 4.31 ± 0.629 µM | 207 nM | 145000 nM | 4132 pmol/mg/min | NS(=O)(=O)c1ccc(-n2nc(COc3cccc(O)c3)cc2-c2ccccc2)cc1 [Compound 6b2] |  |
| 0.033 ± 0.004 µM | 2250 nM | 28 nM | 656 pmol/mg/min | NS(=O)(=O)c1ccc(-n2nc(COc3ccc(O)cc3)cc2-c2ccccc2)cc1 [Compound 6b3] |  |
|  | 40.3 nM | 19800 nM | 7026 pmol/mg/min | COc1ccc(-c2cc(COc3ccccc3O)nn2-c2ccc(S(N)(=O)=O)cc2)cc1 [Compound 6c1] |  |
| 2.38 ± 0.502 µM | 353 nM | 1100 nM | 3092 pmol/mg/min | COc1ccc(-c2cc(COc3cccc(O)c3)nn2-c2ccc(S(N)(=O)=O)cc2)cc1 [Compound 6c2] |  |
| 0.019 ± 0.002 µM | 623 nM | 12600 nM | 934 pmol/mg/min | COc1ccc(-c2cc(COc3ccc(O)cc3)nn2-c2ccc(S(N)(=O)=O)cc2)cc1 [Compound 6c3] |  |
|  | 1.11 nM | 4900 nM | 1050 pmol/mg/min | Cc1ccc(-c2cc(COCc3ccccc3O)nn2-c2ccc(S(N)(=O)=O)cc2)cc1 [Compound 7a1] | Glucuronidation rates by human Colon S9 (Mean) [9]: 190 pmol/mg/min; Sulfation rates by human Colon S9 (Mean) [10]: 40 pmol/mg/min; Glucuronidation rates by liver microsomes (Mean) [7]: 2510 pmol/mg/min; Glucuronidation rates by colon microsomes (Mean) [8]: 160 pmol/mg/min |
|  | 40.3 nM | 19800 nM |  | COc1ccccc1COCc1cc(-c2ccc(C)cc2)n(-c2ccc(S(N)(=O)=O)cc2)n1 [Compound 7a3] |  |
|  |  |  |  | O=c1c(-c2ccc(O)cc2)coc2cc(O)cc(O)c12 [Genistein, reference compound] | Sulfation rates by human intestine S9 (Mean) [11]: 46 pmol/mg/min; Glucuronidation rates by intestine microsomes (Mean) ([5]; human, substrate 10 μM): 4665 pmol/mg/min; Sulfation rates by liver S9 (Mean) [12]: 77 pmol/mg/min; Sulfation rates by colon S9 (Mean) [13]: 4 pmol/mg/min; Glucuronidation rates by liver microsomes (Mean) ([6]; rat, substrate 10 μM): 2199 pmol/mg/min; Sulfation rates by liver S9 (Mean) [14]: 24 pmol/mg/min; Glucuronidation rates by liver microsomes (Mean) ([7]; human, substrate 10 μM): 965 pmol/mg/min; Glucuronidation rates by colon microsomes (Mean) ([8]; rat, substrate 10 μM): 142 pmol/mg/min |
